The results in this text go back to patent US20090221819A1, “FLUORESCENT COMPOUNDS AND USE OF SAID COMPOUNDS IN MULTIPHOTON METHODS OR DEVICES” (priority 2005, published 2009).

Common to all, as to format: physicochemical
Data set [1] is described as follows: two-photon absorption (TPA) cross-sections determined by two-photon excitation fluorescence (TPEF). To be noted: for σ2, effective TPA cross-section at 700 nm / σ2, effective TPA cross-section at 990 nm / σ2, effective TPA cross-section at 750 nm: in toluene; for σ2, effective TPA cross-section at 700 nm / σ2, effective TPA cross-section at 990 nm: 10^−4 M. On the procedure: The TPA spectra of the […] synthesized compounds (LP42, LP52, CL64, CL108, MC237 and MC263) as well as the reference boron dipyrromethene CL76 were also determined in the near-infrared ([…]) by studying their two-photon excitation fluorescence (TPEF), and are shown in FIG. 9.
The measurements were taken in toluene solutions of 10^−4 M, using a titanium-sapphire laser in locked mode generating pulses of ˜80 fs at 80 MHz.
The quadratic dependence of the fluorescence intensity with the excitation intensity was verified for each point of measurement. The calibration is done with respect to the effective TPEF cross-sections of the fluorescein in water (pH=11), which were determined absolutely in the former literature in the range of 690-1000 nm.
This method provides access to the effective TPEF cross-sections (σ2φ), from which the corresponding effective TPA cross-sections (σ2) are deduced. The data in the literature for compound PM556 are added for comparison.
(§1) Φ represents its fluorescence quantum efficiency, determined with respect to the fluorescein in NaOH 0.1N, σ2 represents its effective TPA cross-section (in GM, with 1 GM=10^−50 cm^4.s.photon^−1); the TPEF measurements were performed with a titanium-sapphire laser in locked mode generating pulses of ˜80 fs at 80 MHz, by calibrating with fluorescein),

Data set [2] in a line: absorption and photoluminescence characteristics (absorption and fluorescence emission spectra, quantum efficiency, lifetime). Conditions: in toluene; for Φ, fluorescence quantum efficiency: determined with respect to fluorescein in NaOH 0.1N. On the procedure: The absorption and photoluminescence characteristics of the 4 compounds of which the syntheses are described above were evaluated.
λabs represents the maximum absorption wavelength of the compound,
λem represents its maximum emission wavelength,
as §1
τ represents its fluorescence lifetime (also called the fluorescent decrease time).

The nature of the next data set: water solubility.

In the case of `CCC1=C(C)C2=C(c3ccc(C#Cc4ccc(N(c5ccc(C#Cc6ccc(C7=C8C(C)=C(CC)C(C)=[N+]8[B-](F)(F)n8c(C)c(CC)c(C)c87)cc6)cc5)c5ccc(C#Cc6ccc(C7=C8C(C)=C(CC)C(C)=[N+]8[B-](F)(F)n8c(C)c(CC)c(C)c87)cc6)cc5)cc4)cc3)c3c(C)c(CC)c(C)n3[B-](F)(F)[N+]2=C1C` [CL64], the “effective TPA cross-section relative to model CL76 at 700 nm” value in data set [1] (ratio to CL76) was 9 times. In data set [1], the “σ2, effective TPA cross-section at 700 nm” value is 190 GM and the “σ2, effective TPA cross-section at 990 nm” value came out at 45 GM. Besides, in data set [2], the “ε, molar extinction coefficient” value was 221700 M⁻¹ cm⁻¹; the “λabs, maximum absorption wavelength” value is recorded as 528 nm; the “λem, maximum emission wavelength” value amounted to 543 nm; the “τ, fluorescence lifetime” value was 4.02 ns. Also, in data set [2], the “Φ, fluorescence quantum efficiency” value stood at 0.93.

On to `CCC1=C(C)C2=C(c3ccc(-c4ccc(C5=C6C(C)=C(CC)C(C)=[N+]6[B-](F)(F)n6c(C)c(CC)c(C)c65)cc4)cc3)c3c(C)c(CC)c(C)n3[B-](F)(F)[N+]2=C1C` [LP42, tetrafluoro[1-[2,2′-[(1,1′-biphenyl)-4,4′-diylbis[[4-ethyl-3,5-dimethyl-2H-pyrrol-2-ylidene-]methylene]]bis[4-ethyl-3,5-dimethyl-1H-pyrrolato]]]diboron], for which, in data set [1] (ratio to CL76), the “effective TPA cross-section relative to model CL76 at 700 nm” value is reported as 3 times and the “effective TPA cross-section relative to model CL76 at 990 nm” value was 2.5 times. Moreover, in data set [1], the “σ2, effective TPA cross-section at 700 nm” value is recorded as 57 GM and the “σ2, effective TPA cross-section at 990 nm” value was 48 GM. Moreover, in data set [2], the “ε, molar extinction coefficient” value turned out to be 161900 M⁻¹ cm⁻¹; the “λabs, maximum absorption wavelength” value was 527 nm; the “λem, maximum emission wavelength” value came out at 542 nm; the “τ, fluorescence lifetime” value is on record as 4.76 ns. In addition, in data set [2], the “Φ, fluorescence quantum efficiency” value stood at 0.72.

For `CCC1=C(C)C2=C(c3ccc(-c4cc(-c5ccc(C6=C7C(C)=C(CC)C(C)=[N+]7[B-](F)(F)n7c(C)c(CC)c(C)c76)cc5)cc(-c5ccc(C6=C7C(C)=C(CC)C(C)=[N+]7[B-](F)(F)n7c(C)c(CC)c(C)c76)cc5)c4)cc3)c3c(C)c(CC)c(C)n3[B-](F)(F)[N+]2=C1C` [LP52, hexafluoro[μ3-[2,2′2″-[1,3,5-benzenetriyltris[4,1-phenylene[[4-ethyl-3,5-dimethyl-2H-pyrrol-2-ylidene]methylene]]tris[4-ethyl-3,5-dimethyl-1H-pyrrolato]]]]triboron], in data set [1] (ratio to CL76), the “effective TPA cross-section relative to model CL76 at 700 nm” value is 4 times and the “effective TPA cross-section relative to model CL76 at 990 nm” value is reported as 3.75 times. In data set [1], the “σ2, effective TPA cross-section at 700 nm” value is 82 GM and the “σ2, effective TPA cross-section at 990 nm” value is given as 75 GM. In addition, in data set [2], the “ε, molar extinction coefficient” value turned out to be 244300 M⁻¹ cm⁻¹; the “λabs, maximum absorption wavelength” value is recorded as 527 nm; the “λem, maximum emission wavelength” value worked out at 542 nm; the “τ, fluorescence lifetime” value stood at 4.78 ns. Besides, the “Φ, fluorescence quantum efficiency” value in data set [2] is recorded as 0.69.

Consider `CCC1=C(C)C2=C(c3ccc(C#Cc4ccc(-c5cc(-c6ccc(C#Cc7ccc(C8=C9C(C)=C(CC)C(C)=[N+]9[B-](F)(F)n9c(C)c(CC)c(C)c98)cc7)cc6)cc(-c6ccc(C#Cc7ccc(C8=C9C(C)=C(CC)C(C)=[N+]9[B-](F)(F)n9c(C)c(CC)c(C)c98)cc7)cc6)c5)cc4)cc3)c3c(C)c(CC)c(C)n3[B-](F)(F)[N+]2=C1C` [MC237], for which the “effective TPA cross-section relative to model CL76 at 700 nm” value in data set [1] (ratio to CL76) turned out to be 4 times. Also, in data set [1], the “σ2, effective TPA cross-section at 700 nm” value turned out to be 93 GM and the “σ2, effective TPA cross-section at 990 nm” value is recorded as 34 GM. Moreover, in data set [2], the “ε, molar extinction coefficient” value was 216400 M⁻¹ cm⁻¹; the “λabs, maximum absorption wavelength” value was found to be 528 nm; the “λem, maximum emission wavelength” value turned out to be 544 nm; the “τ, fluorescence lifetime” value is listed as 3.95 ns. Moreover, the “Φ, fluorescence quantum efficiency” value in data set [2] was 0.89.

In the case of `CCC1=C(C)C2=C(c3ccc(-c4cn(-c5ccc(C#Cc6ccc(N(c7ccc(C#Cc8ccc(-n9cc(-c%10ccc(C%11=C%12C(C)=C(CC)C(C)=[N+]%12[B-](F)(F)n%12c(C)c(CC)c(C)c%12%11)cc%10)nn9)cc8)cc7)c7ccc(C#Cc8ccc(-n9cc(-c%10ccc(C%11=C%12C(C)=C(CC)C(C)=[N+]%12[B-](F)(F)n%12c(C)c(CC)c(C)c%12%11)cc%10)nn9)cc8)cc7)cc6)cc5)nn4)cc3)c3c(C)c(CC)c(C)n3[B-](F)(F)[N+]2=C1C` [MC263], the “effective TPA cross-section relative to model CL76 at 750 nm” value in data set [1] (at 750 nm, ratio to CL76) worked out at 18. In addition, in data set [1], the “σ2, effective TPA cross-section at 700 nm” value is reported as 185 GM and the “σ2, effective TPA cross-section at 990 nm” value amounted to 40 GM. In data set [1] (at 750 nm), the “σ2, effective TPA cross-section at 750 nm” value turned out to be 270 GM. In data set [2], the “ε, molar extinction coefficient” value amounted to 211100 M⁻¹ cm⁻¹; the “λabs, maximum absorption wavelength” value is given as 528 nm; the “λem, maximum emission wavelength” value came out at 542 nm; the “τ, fluorescence lifetime” value is recorded as 4.36 ns. The “Φ, fluorescence quantum efficiency” value in data set [2] is on record as 1.

Turning to `CC1=C(S(=O)(=O)[O-])C(C)=[N+]2C1=C(c1ccc(C#Cc3ccc(-c4cc(-c5ccc(C#Cc6ccc(C7=C8C(C)=C(S(=O)(=O)[O-])C(C)=[N+]8[B-](F)(F)n8c(C)c(S(=O)(=O)[O-])c(C)c87)cc6)cc5)cc(-c5ccc(C#Cc6ccc(C7=C8C(C)=C(S(=O)(=O)[O-])C(C)=[N+]8[B-](F)(F)n8c(C)c(S(=O)(=O)[O-])c(C)c87)cc6)cc5)c4)cc3)cc1)c1c(C)c(S(=O)(=O)[O-])c(C)n1[B-]2(F)F.[Na+].[Na+].[Na+].[Na+].[Na+].[Na+]` [MC297], the water solubility result in the data set “water solubility” is “perfectly water-soluble”.

In the case of “|4-ethyl-2-|(4-ethyl-3,5-dimethyl-2H-pyrrol-2-ylidene)phenyl methyl|-3,5-dimethyl-1H-pyrrolato|difluoroboron [CL76, reference compound]”, in data set [1], the “σ2, effective TPA cross-section at 700 nm” value came to 20 GM and the “σ2, effective TPA cross-section at 990 nm” value came out at 20 GM. Further, in data set [1] (at 750 nm), the “σ2, effective TPA cross-section at 750 nm” value was determined as 15 GM. Also, in data set [2], the “ε, molar extinction coefficient” value is 76180 M⁻¹ cm⁻¹; the “λabs, maximum absorption wavelength” value amounted to 527 nm; the “λem, maximum emission wavelength” value stood at 539 nm; the “Φ, fluorescence quantum efficiency” value was 0.75.
